T1: thyroid peroxidase (TPO) (Sus scrofa, UniProt P09933)
T1 construct: The frozen thyroid gland was minced with a fork; from tissue; host or cells: porcine thyroid gland (homogenate, centrifuged, salted out to 60%)
T1 sequence (P09933 15-926): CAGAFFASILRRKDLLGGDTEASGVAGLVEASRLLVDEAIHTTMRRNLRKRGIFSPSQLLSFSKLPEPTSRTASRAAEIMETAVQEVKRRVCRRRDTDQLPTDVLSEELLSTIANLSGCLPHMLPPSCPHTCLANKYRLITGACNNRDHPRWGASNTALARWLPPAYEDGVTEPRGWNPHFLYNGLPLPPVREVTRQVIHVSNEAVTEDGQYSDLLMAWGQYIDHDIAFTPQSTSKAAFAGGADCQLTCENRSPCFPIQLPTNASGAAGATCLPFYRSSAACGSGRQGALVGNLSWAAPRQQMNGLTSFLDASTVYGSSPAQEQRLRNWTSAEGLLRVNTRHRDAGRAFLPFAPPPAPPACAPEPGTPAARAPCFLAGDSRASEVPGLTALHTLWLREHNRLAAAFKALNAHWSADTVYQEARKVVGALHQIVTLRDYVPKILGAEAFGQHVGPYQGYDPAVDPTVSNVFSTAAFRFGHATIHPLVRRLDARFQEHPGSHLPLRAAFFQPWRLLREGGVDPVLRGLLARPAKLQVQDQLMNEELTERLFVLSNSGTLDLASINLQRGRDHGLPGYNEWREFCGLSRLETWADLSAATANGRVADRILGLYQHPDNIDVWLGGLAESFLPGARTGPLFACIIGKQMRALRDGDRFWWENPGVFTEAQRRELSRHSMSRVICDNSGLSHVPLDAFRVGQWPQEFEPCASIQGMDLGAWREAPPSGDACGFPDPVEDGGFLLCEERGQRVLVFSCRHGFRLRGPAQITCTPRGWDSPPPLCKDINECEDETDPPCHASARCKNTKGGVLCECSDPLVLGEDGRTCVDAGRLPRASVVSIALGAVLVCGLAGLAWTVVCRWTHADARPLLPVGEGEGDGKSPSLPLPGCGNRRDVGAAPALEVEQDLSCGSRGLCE

T2: soybean lipoxygenase type 1-B (LOX) (Glycine max, UniProt P08170)
T2 construct: purchased Sigma-Aldrich Company (Poznan, Poland)
T2 sequence (P08170 1-839): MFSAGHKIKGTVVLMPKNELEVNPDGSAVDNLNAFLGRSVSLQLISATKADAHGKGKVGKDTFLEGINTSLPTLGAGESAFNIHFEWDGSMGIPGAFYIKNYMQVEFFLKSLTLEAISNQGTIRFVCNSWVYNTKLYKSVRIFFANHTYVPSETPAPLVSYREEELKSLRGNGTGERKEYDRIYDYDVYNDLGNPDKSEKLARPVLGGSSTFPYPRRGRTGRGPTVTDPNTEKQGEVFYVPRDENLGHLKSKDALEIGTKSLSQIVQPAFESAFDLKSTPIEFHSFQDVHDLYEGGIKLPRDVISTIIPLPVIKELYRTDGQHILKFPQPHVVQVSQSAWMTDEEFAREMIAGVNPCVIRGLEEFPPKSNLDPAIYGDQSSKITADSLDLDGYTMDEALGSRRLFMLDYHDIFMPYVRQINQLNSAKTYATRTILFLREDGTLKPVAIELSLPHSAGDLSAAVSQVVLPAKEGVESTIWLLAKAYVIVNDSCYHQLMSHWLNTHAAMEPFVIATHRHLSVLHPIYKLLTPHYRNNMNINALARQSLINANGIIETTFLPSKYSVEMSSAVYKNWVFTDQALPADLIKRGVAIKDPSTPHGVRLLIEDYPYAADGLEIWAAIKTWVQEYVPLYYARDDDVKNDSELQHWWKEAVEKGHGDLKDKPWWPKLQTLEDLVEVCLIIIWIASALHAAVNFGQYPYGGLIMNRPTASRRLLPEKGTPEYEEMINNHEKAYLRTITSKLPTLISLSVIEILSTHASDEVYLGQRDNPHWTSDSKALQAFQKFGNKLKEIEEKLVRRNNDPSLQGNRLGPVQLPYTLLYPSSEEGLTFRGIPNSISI

B1: thyroid peroxidase (TPO) (Sus scrofa) (protein)
chain: T1 sequence (P09933 15-926)
notes: The frozen thyroid gland was minced with a fork; from tissue; host or cells: porcine thyroid gland (homogenate, centrifuged, salted out to 60%)

Legend:
LOX [1] = settings: different concentration than in the presented study; cited from earlier work
thyroid peroxidase (TPO) = biological target: T1, thyroid peroxidase (TPO); experiment: TPO assay (guaiacol oxidation, activation kinetics); format: biochemical, Porcine; settings: n = 9, read-out: AC50 (concentration resulting in 50% activation)
Description: (§1) The assay was prepared according to Jomaa et al., with some modifications. Porcine thyroid glands were purchased at a slaughterhouse (Lublin, Poland) and stored at −20 °C until used. The frozen thyroid gland was minced with a fork. The mince was suspended in a buffer containing 0.25 M sucrose, 2 mM tris–HCl, 100 mM KCl, 40 mM NaCl and 10 mM MgCl2 (pH 7.4) and homogenized using Philips homogenizer. The thyroid gland was centrifuged two times at 4000 RPM per 15 min at a temperature + 4 °C. The enzyme protein was then salted out to 60%. The supernatant was stored at − 20 °C until used.
(§2) The assay was used according to Jomaa et al., with some modification. The measurement was made using a plate spectrophotometer (BioTek, Model Epoch2TC, Winooski, VT, USA) in 96–well plates at a wavelength of 470 nm. Absorbance readings were recorded every minute for a total of 3 min at 37 °C. TPO activity is expressed as a change of absorption per minute. All measurements were performed in three replicates. The AC50 (activator concentration) values were calculated at fitted models as the concentration of the tested compound providing 50% of the activation based on a dose-dependent mode of action.

[2] = biological target: T2, soybean lipoxygenase type 1-B (LOX); experiment: Inhibition of lipoxygenase activity (LOXI) with linoleic acid as substrate; format: biochemical; settings: for Mode of Inhibition: Lineweaver-Burk, linoleic acid substrate
Description: Measurement was made at a wavelength of 234 nm. One unit of LOX activity was defined as an increase in absorbance of 0.001 per minute at 234 nm. All measurements were performed in four replicates.

[3] = parameters: method as in earlier work; settings: cited from earlier work
[4] = ABTS radical scavenging assay; settings: 15 min incubation at room temperature, n = 9; read-out: IC50 ABTS radical scavenging ability
Description: ABTS radical scavenging activity was determined according to Re et al. with slight modifications using a microplate spectrophotometer (BioTek, Model Epoch2TC, Winooski, VT, USA) after 15 min of incubation at room temperature.

[5] = FA perfused as a free pure compound in the rat intestine; cited from earlier work
[6] = parameters: method as in PMID 10730826; settings: humans, FA in its free form, for example from beer; cited from earlier work
LOX [7] = test system: LOX; parameters: method as in doi:10.3390/app9030568; settings: previous studies; cited from earlier work
[8] = blood samples of rabbits; cited from earlier work
[9] = substrate: COc1ccccc1O; experiment: TPO assay (guaiacol oxidation, activation kinetics); format: biochemical, Porcine; settings: other: TPO substrate guaiacol, n = 9; pH 7.4
Description: as §1, §2

Km ([2]; LOX substrate linoleic acid, read-out: Km without Inhibitor) [µM]	Molecule	LOX inhibition (LOX [1]) [%]	AC50 (thyroid peroxidase (TPO)) [µM]	IC50 [2] [µM]	Ki [2] [µM]	Mode of Inhibition [2]	Oral bioavailability [3]	IC50 [4] [µM]	Bioavailability [5]	Urinary excretion [6]	Mode of LOX inhibition (LOX [7])	Absolute bioavailability [8] [%]	Km [9] [µM]
	O=C(O)/C=C/c1ccccc1 [trans–cinnamic acid, trans-cinnamic acid]	66.6	100 ± 5	9 ± 0.4	9 ± 0.4	uncompetitive	low	2120 ± 106					
	COc1cc(/C=C/C(=O)O)ccc1O [Ferulic acid, ferulic acid]	74.4	390 ± 19	27 ± 1.3	8 ± 0.4	uncompetitive		410 ± 20	about 50%	19–98%	competitive		
	COc1cc(C(=O)O)cc(OC)c1O [Syringic acid, syringic acid]		690 ± 34	9 ± 0.4	5 ± 0.3	uncompetitive		220 ± 11				86.27	
7 ± 0.3	CCCCC/C=C\C/C=C\CCCCCCCC(=O)O [Linoleic acid, reference compound]												
	B1												60 ± 3
